Source: patent publication US20240279247A1, “PRODRUGS OF BORON COMPOUNDS AND THEIR USE IN TREATING BACTERIAL INFECTIONS” (priority 2022, published 2024)
Read-outs that look alike come from different tables or passages of the source.

Legend:
[1] = Pharmacokinetic study in rat (iv or oral gavage); format: in vivo, SD rats; details: SD rat; for AUC compared with that of Example 5, in words: oral
Description: To further elucidate therapeutic potential of drug compounds, pharmacokinetic (PK) data is used to establish the key parameters predictive of the therapy outcome, such as area under the curve (AUC) for a plot monitoring the change in the systemic drug concentration over time. Thus, a higher AUC value indicates a greater exposure to the drug, commonly associated with a greater therapeutic potential due to a higher amount of drug available to combat the infection in a mammal. In contrast, a lower AUC value indicates a reduced exposure to the drug under study, resulting in a reduced amount of antibiotic available to combat bacterial infestations. To that end, the compounds described herein were tested in a rat PK model of oral administration performed analogously to methods described in the monograph Current Protocols in Pharmacology, 2005, 7.1.1-7.1.26, John Wiley & Sons, Inc.
All the compounds were administered to SD rats (The rats were randomly divided into groups with 3 rats in each group) by intravenous (iv) or oral gavage. Since the prodrugs are expected to convert to the parent molecule in vivo, only the parent compound (the compound of Example 5) was tested for all samples. […] This low bioavailability as well as low exposure (AUC) and C max make it inappropriate for development as oral drug. […] Because the prodrugs usually have larger molecular weight due to the introduction of prodrug substructures, the AUC is corrected by dose and molecular weight (MW) to give AUC per mole, to compare the efficiency among the prodrugs.

A. baumannii MABA 0001 = experiment: In vitro antibacterial activity (MIC), A. baumannii; format: cell-based; details: Acinetobacter baumannii, MABA0001
Description: (§1) The in vitro activity of compounds described herein may be assessed by standard testing procedures such as the determination of minimum inhibitory concentration (MIC) as described in Approved Standard. Methods for Dilution Antimicrobial Susceptibility Tests for Bacteria that Grow Aerobically, 3rd ed., 1993, published by the National Committee for Clinical Laboratory standards, Villanova, Pennsylvania, USA. Low MIC values indicate high antibacterial activity, while high MIC values reveal a reduced antibacterial activity (with higher drug concentration required for pathogen eradication in the latter instance). Generally, MIC values of about ≤4-8 μg/mL indicate a therapeutic (i.e. suitable for therapy) potency for antibacterial drugs, while MIC values of ≥16 μg/mL indicate a lack of therapeutically useful activity for a test compound.

E. coli MECO 002 = experiment: In vitro antibacterial activity (MIC), E. coli; format: cell-based; details: Escherichia coli, MECO002
Description: as §1

K. pneumoniae ATCC10031 = experiment: In vitro antibacterial activity (MIC), K. pneumoniae; format: cell-based; details: Klebsiella pneumoniae
Description: as §1

P. aeruginosa PAE 1001 = experiment: In vitro antibacterial activity (MIC), P. aeruginosa; format: cell-based; details: Pseudomonas aeruginosa, PAE1001
Description: as §1

[2] = Lung vs. plasma distribution study in mice; format: in vivo; details: Balb/C mouse
[3] = tested on: Gram-negative bacteria, including Pseudomonas aeruginosa, Acinetobacter baumannii, Escherichia coli, and Klebsiella pneumoniae; experiment: In vitro antibacterial activity (MIC), summary over Gram-negative bacteria; format: cell-based; details: for in vitro antibacterial activity in words: prodrugs of Example 5, Table 1 data
Description: as §1

[4] = tested on: Pseudomonas aeruginosa WPAE 1004; experiment: Pseudomonas aeruginosa mouse lung infection model; format: in vivo; details: ICR mouse, po 10 mg/kg once daily; for WPAE 1004, Lg (CFU/lung) 24 h: oral suspension; for Δ 24 h (Control-Theray), log reduction of CFU in lung: vs untreated control
Protocol: To establish the efficacy of the compounds described herein in vivo, a Pseudomonas aeruginosa mouse lung infection model was performed by administering test compounds analogously to the method described in Andes et al. in Antimicrobial Agents and Chemotherapy, 2002, 46(11), 3484-3489. In this model, a greater reduction in the bacterial colony-forming units (CFU) indicates more beneficial therapeutic effect (more bacterial eradication), while a lower CFU reduction indicates a lower effect (less bacterial eradication). The in vivo antibacterial effect is also referred to as “efficacy”, in contrast to the term “potency,” which is commonly used for in vitro activity (expressed as MIC).
In the Pseudomonas aeruginosa ICR mouse (The mice were randomly divided into groups with 6 mice in each group) lung infection, reference Example 5 was administered orally at 10 mg/kg once daily. […] As a prodrug for oral administration, the compound of Example 2 and 8 were also given by oral gavage at 10 mg/kg once daily. […] The data is strongly supportive of the prodrug of Example 2 and 8 being converted to reference compound of Example 5 after oral administration to exert the antibacterial activity. The data also supports a high conversion rate.

[5] = in vivo, iv 5 mg/kg, parent compound (Example 5) measured

| AUClast, lung ([2]; Example 2 10 mg/kg po, levels for Example 2) | AUClast, lung ([2]; Example 2 10 mg/kg po, levels for Example 5) | AUC [1, 5] | Cmax [1, 5] | AUClast, lung ([2]; Example 5 10 mg/kg iv, levels for Example 5) | Kp ([2]; lung/plasma, Example 5 10 mg/kg iv, levels for Example 5, read-out: AUC ratio (lung/plasma)) | half-life ([2]; lung, Example 5 10 mg/kg iv, levels for Example 5, read-out: t1/2, lung (converted)) | AUC(0-t) ([2]; plasma, Example 5 10 mg/kg iv, levels for Example 5, read-out: AUClast, plasma) | half-life ([2]; plasma, Example 5 10 mg/kg iv, levels for Example 5, read-out: t1/2, plasma (converted)) | MIC range against Gram-negative bacteria ([3]; range over the four strains of Table 1) | SMILES | AUC compared with that of Example 5, in words [1] | MIC (A. baumannii MABA 0001) | MIC (E. coli MECO 002) | MIC (K. pneumoniae ATCC10031) | MIC (P. aeruginosa PAE 1001) | in vitro antibacterial activity in words [3] | WPAE 1004, Lg (CFU/lung) 24 h [4] | Δ 24 h (Control-Theray), log reduction of CFU in lung [4] |
| --- | --- | --- | --- | --- | --- | --- | --- | --- | --- | --- | --- | --- | --- | --- | --- | --- | --- | --- |
|  |  |  |  |  |  |  |  |  |  | CC(=O)OC[C@H](COc1cccc2c1B(O)O[C@@H]2CN)OC(C)=O.Cl [Example 1, (2S)-3-acetoxy-1-{[(3S)-3-(aminomethyl)-1-hydroxy-1,3-dihydrobenzo[2,1-c][1,2]oxaborol-7-yl]oxy}propan-2-yl acetate hydrochloride] | significantly higher | > 32 µg/mL | > 32 µg/mL | > 32 µg/mL | > 32 µg/mL |  |  |  |
| 968 ng·h/g | 23589 ng·h/g |  |  |  |  |  |  |  |  | CC(C)C(=O)OC[C@H](COc1cccc2c1B(O)O[C@@H]2CN)OC(=O)C(C)C.Cl [Example 2, (2S)-1-{[(3S)-3-(aminomethyl)-1-hydroxy-1,3-dihydrobenzo[2,1-c][1,2]oxaborol-7-yl]oxy}-3-[(2-methylpropanoyl)oxy]propan-2-yl 2-methylpropanoate hydrochloride] | significantly higher | > 32 µg/mL | > 32 µg/mL | > 32 µg/mL | > 32 µg/mL | inactive | 7.50 ± 0.73 Lg (CFU/lung) | 1.77 Lg (CFU/lung) |
|  |  |  |  |  |  |  |  |  |  | CC(C)(C)C(=O)OC[C@H](COc1cccc2c1B(O)O[C@@H]2CN)OC(=O)C(C)(C)C.Cl [Example 3, (2S)-3-[(2,2-dimethylpropanoyl)oxy]-1-{[(3S)-3-(aminomethyl)-1-hydroxy-1,3-dihydrobenzo[2,1-c][1,2]oxaborol-7-yl]oxy}propan-2-yl 2,2-dimethylpropanoate hydrochloride] | significantly higher | > 32 µg/mL | > 32 µg/mL | > 32 µg/mL | > 32 µg/mL | inactive |  |  |
|  |  |  |  |  |  |  |  |  |  | CC(C)C(=O)OC[C@@H]1COc2cccc3c2B(O1)O[C@@H]3CN.Cl [Example 4, [(2S,6S)-2-(aminomethyl)-4-bora-3,5,8-trioxatricyclo[7.3.1.04,13]trideca-1(12),9(13),10-trien-6-yl]methyl 2-methylpropanoate hydrogen chloride] | significantly higher | > 32 µg/mL | > 32 µg/mL | > 32 µg/mL | > 32 µg/mL | inactive |  |  |
|  |  | 5660 ng·h/mL | 6780 ng/mL | 12822 ng·h/g | 2.39 | 1.46 h | 5360 ng·h/mL | 1.87 h | 2 to 4 µg/mL | Cl.NC[C@H]1OB2O[C@H](CO)COC3C=CC=C1C23 (stereo partly drawn) [Example 5, [(2S,6R)-2-(aminomethyl)-4-bora-3,5,8-trioxatricyclo[7.3.1.04,13]trideca-1(12),10-dien-6-yl]methanol hydrochloride, reference compound] |  | 2 µg/mL | 2 µg/mL | 4 µg/mL | 2 µg/mL |  | 8.56 ± 0.49 Lg (CFU/lung) | 0.53 Lg (CFU/lung) |
|  |  |  |  |  |  |  |  |  |  | CCC(=O)OC[C@H](COc1cccc2c1B(O)O[C@@H]2CN)OC(=O)CC.Cl [Example 6] | significantly higher |  |  |  |  |  |  |  |
|  |  |  |  |  |  |  |  |  |  | CC(=O)OC[C@@H]1COc2cccc3c2B(O1)O[C@@H]3CN.Cl [Example 7, [(2S,6S)-2-(aminomethyl)-4-bora-3,5,8-trioxatricyclo[7.3.1.04,13]trideca-1(12),9(13),10-trien-6-yl]methyl acetate hydrogen chloride] | significantly higher |  |  |  |  |  |  |  |
|  |  |  |  |  |  |  |  |  |  | CCC(=O)OC[C@@H]1COc2cccc3c2B(O1)O[C@@H]3CN.Cl [Example 8, [(2S,6S)-2-(aminomethyl)-4-bora-3,5,8-trioxatricyclo[7.3.1.04,13]trideca-1(12),9(13),10-trien-6-yl]methyl propanoate hydrogen chloride] | significantly higher | > 32 µg/mL | > 32 µg/mL | > 32 µg/mL | > 32 µg/mL | inactive | 8.45 ± 0.64 Lg (CFU/lung) | 0.82 Lg (CFU/lung) |
